Patent US20260174790A1, “HUMAN AND MURINE OPRM1 PROMOTERS AND USES THEREOF” (The Trustees of the University of Pennsylvania, priority 2022, published 2026)

Legend:
spinal MOR+ neurons = assay: Von Frey filament Up-Down test with chemogenetic inhibition; assay type: in vivo, mouse; conditions: intrathecal DCZ 10 pg, mMORp-hM4Di-mCherry injected mice; von Frey and hot plate
Protocol: For spinal cord chemogenetic studies, mice were injected intraparenchymally at four sites (bilaterally at L4 and L5) with 400 nL of AAV1-mMORp-hM4Di-mCherry (titer: 3.1×10^12 gc/mL) to drive transduction of inhibitory DREADD receptor in spinal cord neurons. Using a modified, minimally invasive method for microinjection in the mouse spinal dorsal horn without laminectomy^91, mice were first anesthetized with isoflurane gas in oxygen (initial dose=4%, maintenance dose=2%), the back shaved and wiped with alcohol and povidone-iodine followed by a 2 cm incision made through the skin, and then placed within a modified Kopf stereotaxic frame to stabilize the T13 and L3 spinal column vertebrae. Next, the spinal column was slightly arched upwards by ˜30°, 0.2 mg/kg lidocaine was administered to the overlying muscle, which was then was gently dissected to expose the interspace above and below the T13 vertebrae, allowing direct access to the L3-5 spinal cord dorsal surface. […]
Von Frey filament touch test: To evaluate mechanical reflexive sensitivity, we used a logarithmically increasing set of 8 von Frey filaments (Stoelting), ranging in gram force from 0.07 to 6.0 grams. […] Using the Up-Down statistical method^100, the 50% withdrawal mechanical threshold scores were calculated for each mouse and then averaged across the experimental groups. […]

MOR+ CeA neurons [1] = assay: In vivo fiber photometry, chronic morphine drinking and naloxone precipitated withdrawal; set-up: species or system mouse; conditions: mMORp-GCaMP6f mice, forced morphine drinking (0.3 mg/ml 3 days, 0.5 mg/ml 4 days), naloxone i.p. 3 mg/kg, 20-minute window
Protocol: For fiber photometry studies, mice were injected with ˜300 nL of recombinant AAV1-mMORp-GCaMP6f (titer: 3.69×10^12 gc/mL) in the right CeA, followed immediately by the placement of a fiberoptic implant (˜4.7 mm fiber, Doric Lenses) approximately 0.1-0.2 mm above the DV coordinate of the injection site (same as listed above). After setting the fiberoptic in position, MetaBond (Parkel1) and Jet Set dental acrylic (Lang Dental) were applied to the skull of a mouse to rapidly and firmly fix the fiberoptic in place. In brief, after exposure of the skull, the bone was scored with a scalpel blade to provide grooves for the MetaBond to settle into and provide better adhesion. […] All mice were monitored for up to two days following surgical procedures to ensure the animals' proper recovery.
In Vivo Fiber Photometry Recordings and Analysis: Optical recordings of GCaMP6f fluorescence were acquired using an RZ10× fiber photometry detection system (Tucker-Davis Technologies), consisting of a processor with Synapse software (Tucker-Davis Technologies), and optical components (Doric Lenses and ThorLabs). Excitation wavelengths generated by LEDs (460 nm blue light and 405 nm violet light) were relayed through a filtered fluorescence minicube at spectral bandwidths of 460-495 and 405 nm to a pre-bleached mono fiberoptic patch cord connected to the implant on top of each animal's head. […]

MOR+ CeA neurons [2] = assay: In vivo fiber photometry, hot water hind paw stimulation; set-up: species or system mouse; conditions: mMORp-GCaMP6f mice, morphine i.p. 10 mg/kg 30 minutes prior to hot water hind paw stimulations
Protocol: For fiber photometry studies, mice were injected with ˜300 nL of recombinant AAV1-mMORp-GCaMP6f (titer: 3.69×10^12 gc/mL) in the right CeA, followed immediately by the placement of a fiberoptic implant (˜4.7 mm fiber, Doric Lenses) approximately 0.1-0.2 mm above the DV coordinate of the injection site (same as listed above). After setting the fiberoptic in position, MetaBond (Parkel1) and Jet Set dental acrylic (Lang Dental) were applied to the skull of a mouse to rapidly and firmly fix the fiberoptic in place. In brief, after exposure of the skull, the bone was scored with a scalpel blade to provide grooves for the MetaBond to settle into and provide better adhesion. After lowering the fiberoptic into the craniotomy hole, the skull was cleaned with saline and then fully air dried. […] All mice were monitored for up to two days following surgical procedures to ensure the animals' proper recovery.
Hot water hindpaw stimulation test: To evaluate responses to acute, noxious thermal stimulations during fiber photometry testing, we used a hot water hind paw application protocol described previously^102. […] Animals were continuously recorded by a web camera positioned to face the front of the cylinder in which the animal was housed, and all relevant behaviors time-locked to calcium mediated events were scored post-hoc using the video footage. […]

Compound: CN1CCN(C2=Nc3ccccc3Nc3ccccc32)CC1 [DCZ, deschloroclozapine]
- analgesic effects on activation of mMORp-hM4Di in spinal cord neurons (spinal MOR+ neurons): analgesic effects similar to CNO treatment

Compound: CN1CC[C@]23c4c5ccc(O)c4O[C@H]2[C@@H](O)C=C[C@H]3[C@H]1C5.O=S(=O)(O)O [morphine, morphine sulfate]
- average post naloxone calcium events (MOR+ CeA neurons [1]): 91
- calcium mediated event peak z-score (MOR+ CeA neurons [2]): 7.6
